Assay results: patent publication US12404279B2, “Deubiquitinase inhibitors and methods of use thereof” (Molecure S.A., priority 2021, dated 2025)
pIC50: −log10 of the molar value. Structures can show the parent of a compound that is named as a salt. Where two headings read alike, the source gives them in different places.

Biological target: full-length USP7 (Homo sapiens (Human), UniProt Q93009)
Experiment: Enzymatic assay to determine IC50 of USP7 inhibitors (Ubiquitin-Rhodamine 110 cleavage)
Type: biochemical
Settings: for inhibition at 1 µM: read-out: percent value of inhibition of USP7 activity; for pIC50: 0.5 nM USP7, 0.5 μM Ubiquitin-Rhodamine 110, 45 min at 37° C.
Protocol: For the inhibitors disclosed herein, their potency was measured using the following method.
A 45 μl reaction volume containing full-length USP7 (0.5 nM) in 50 mM HEPES pH 7.5, 150 mM NaCl, 1 mM DTT, 1 mg/ml BSA and 0.05% Tween20 was assembled in wells of 96 well half area black flat bottom plates. Test compounds were first dissolved to 25 mM stocks in DMSO and subsequently introduced to enzyme 15 min after USP7 incubation with DTT at room temperature. The enzymatic reaction was started by adding 0.5 μM Ubiquitin-Rhodamine 110 (final concentration) and allowed to proceed for 45 min at 37° C., 250 RPM shaking before Rhodamine fluorescence (485 nm excitation/520 nm emission) was measured using Tecan Spark M10 plate reader.

[1] = at 1 μM of the test compound, given where IC50 not determined yet

Sequence of full-length USP7 (Q93009 whole entry): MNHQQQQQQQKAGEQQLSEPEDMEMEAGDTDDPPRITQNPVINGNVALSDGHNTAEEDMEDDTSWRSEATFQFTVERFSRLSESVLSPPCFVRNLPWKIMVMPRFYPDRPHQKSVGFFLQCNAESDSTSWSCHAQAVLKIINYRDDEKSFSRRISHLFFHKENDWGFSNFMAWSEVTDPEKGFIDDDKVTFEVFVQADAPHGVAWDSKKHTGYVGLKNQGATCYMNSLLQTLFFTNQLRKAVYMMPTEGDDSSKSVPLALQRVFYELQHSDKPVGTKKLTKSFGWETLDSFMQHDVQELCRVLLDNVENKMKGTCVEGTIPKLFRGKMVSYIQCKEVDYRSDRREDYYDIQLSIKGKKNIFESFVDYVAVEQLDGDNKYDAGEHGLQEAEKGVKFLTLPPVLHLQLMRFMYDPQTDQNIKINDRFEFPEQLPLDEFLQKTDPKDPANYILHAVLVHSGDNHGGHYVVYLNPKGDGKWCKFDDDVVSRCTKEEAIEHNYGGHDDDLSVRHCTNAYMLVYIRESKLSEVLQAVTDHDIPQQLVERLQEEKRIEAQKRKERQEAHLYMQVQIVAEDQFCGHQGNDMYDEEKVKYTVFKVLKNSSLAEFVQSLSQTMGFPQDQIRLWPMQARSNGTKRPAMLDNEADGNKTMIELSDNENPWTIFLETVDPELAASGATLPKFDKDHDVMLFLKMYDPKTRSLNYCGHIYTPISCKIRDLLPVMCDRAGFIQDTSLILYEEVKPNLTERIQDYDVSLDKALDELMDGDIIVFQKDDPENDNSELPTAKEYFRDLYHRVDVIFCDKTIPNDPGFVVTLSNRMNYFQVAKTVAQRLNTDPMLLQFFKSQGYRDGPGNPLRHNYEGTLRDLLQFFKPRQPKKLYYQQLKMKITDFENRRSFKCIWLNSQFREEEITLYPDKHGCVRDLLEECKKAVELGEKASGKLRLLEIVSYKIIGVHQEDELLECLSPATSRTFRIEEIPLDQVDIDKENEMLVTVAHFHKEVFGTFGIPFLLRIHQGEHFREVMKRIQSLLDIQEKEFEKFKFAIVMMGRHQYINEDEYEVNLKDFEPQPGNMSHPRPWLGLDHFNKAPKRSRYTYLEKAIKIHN

SMILES	pIC50	further results
CC1(C)C2C(=O)N(Cc3cc4nccc(-c5cc(C(F)(F)F)n(CC6CNCCO6)n5)c4s3)C(=O)C21 (stereo not drawn) [Example 6, 6,6-dimethyl-3-((7-(1-(morpholin-2-ylmethyl)-5-(trifluoromethyl)-1H-pyrazol-3-yl)thieno[3,2-b]pyridin-2-yl)methyl)-3-azabicyclo[3.1.0]hexane-2,4-dione 2,2,2-trifluoroacetate]		inhibition at 1 µM: < 20%
CC1(C)C2C(=O)N(Cc3cc4nccc(-c5cc(C(F)(F)F)nn5CC5CNCCO5)c4s3)C(=O)C21 (stereo not drawn) [Example 7, 6,6-dimethyl-3-((7-(1-(morpholin-2-ylmethyl)-3-(trifluoromethyl)-1H-pyrazol-5-yl)thieno[3,2-b]pyridin-2-yl)methyl)-3-azabicyclo[3.1.0]hexane-2,4-dione 2,2,2-trifluoroacetate]		inhibition at 1 µM: < 20%
CC1(C)C2C(=O)N(Cc3cc4nccc(-c5cccn5CC5CNCCO5)c4s3)C(=O)C21 (stereo not drawn) [Example 9, 6,6-dimethyl-3-((7-(1-(morpholin-2-ylmethyl)-1H-pyrrol-2-yl)thieno[3,2-b]pyridin-2-yl)methyl)-3-azabicyclo[3.1.0]hexane-2,4-dione 2,2,2-trifluoroacetate]		inhibition at 1 µM: < 20%
Cc1nc(C#N)cc(-c2ccnc3cc(CN4C(=O)C5C(C4=O)C5(C)C)sc23)c1C(=O)N1CCC(F)(F)CC1 (stereo not drawn) [Example 13, 5-(4,4-difluoropiperidine-1-carbonyl)-4-(2-((6,6-dimethyl-2,4-dioxo-3-azabicyclo[3.1.0]hexan-3-yl)methyl)thieno[3,2-b]pyridin-7-yl)-6-methylpicolinonitrile 2,2,2-trifluoroacetate]		inhibition at 1 µM [1]: 20 to 49%
Cc1nc(C#N)cc(-c2ccnc3cc(CN4C(=O)C5C(C4=O)C5(C)C)sc23)c1C(=O)NC1CC(F)(F)C1 (stereo not drawn) [Example 14, 6-cyano-N-(3,3-difluorocyclobutyl)-4-(2-((6,6-dimethyl-2,4-dioxo-3-azabicyclo[3.1.0]hexan-3-yl)methyl)thieno[3,2-b]pyridin-7-yl)-2-methylnicotinamide 2,2,2-trifluoroacetate]		inhibition at 1 µM: < 20%
Cc1nc(C#N)cc(-c2ccnc3cc(CN4C(=O)C5C(C4=O)C5(C)C)sc23)c1C(=O)NC1CNC1 (stereo not drawn) [Example 16, N-(azetidin-3-yl)-6-cyano-4-(2-((6,6-dimethyl-2,4-dioxo-3-azabicyclo[3.1.0]hexan-3-yl)methyl)thieno[3,2-b]pyridin-7-yl)-2-methylnicotinamide hydrochloride]		inhibition at 1 µM [1]: 20 to 49%
Cc1cc(C(F)(F)F)nc(-c2ccnc3cc(CN4C(=O)C5C(C4=O)C5(C)C)sc23)c1NC1CCNC1 (stereo not drawn) [Example 18, 6,6-dimethyl-3-((7-(4-methyl-3-(pyrrolidin-3-ylamino)-6-(trifluoromethyl)pyridin-2-yl)thieno[3,2-b]pyridin-2-yl)methyl)-3-azabicyclo[3.1.0]hexane-2,4-dione 2,2,2-trifluoroacetate]	> 6.30	
Cc1cc(C#N)nc(-c2ccnc3cc(CN4C(=O)C5C(C4=O)C5(C)C)sc23)c1NC1CCNC1 (stereo not drawn) [Example 20, 6-(2-((6,6-dimethyl-2,4-dioxo-3-azabicyclo[3.1.0]hexan-3-yl)methyl)thieno[3,2-b]pyridin-7-yl)-4-methyl-5-(pyrrolidin-3-ylamino)picolinonitrile dihydrochloride]	> 6.30	
Cc1nc(C(F)(F)F)cc(-c2ccnc3cc(CN4C(=O)C5C(C4=O)C5(C)C)sc23)c1O[C@H]1CCNC1 (stereo partly drawn) [Example 22]	6.00 to 6.30	
Cc1nc(C(F)(F)F)cc(-c2ccnc3cc(CN4C(=O)C5C(C4=O)C5(C)C)sc23)c1O[C@H]1CCCNC1 (stereo partly drawn) [Example 23, 6,6-dimethyl-3-((7-(2-methyl-3-(((S)-piperidin-3-yl)oxy)-6-(trifluoromethyl)pyridin-4-yl)thieno[3,2-b]pyridin-2-yl)methyl)-3-azabicyclo[3.1.0]hexane-2,4-dione 2,2,2-trifluoroacetate]	> 6.30	
Cc1cc(C#N)nc(-c2ccnc3cc(CN4C(=O)C5C(C4=O)C5(C)C)sc23)c1NC1CNC1 (stereo not drawn) [Example 24, 5-(azetidin-3-ylamino)-6-(2-((6,6-dimethyl-2,4-dioxo-3-azabicyclo[3.1.0]hexan-3-yl)methyl)thieno[3,2-b]pyridin-7-yl)-4-methylpicolinonitrile 2,2,2-trifluoroacetate]	> 6.30	
Cc1nc(C#N)cc(-c2ccnc3cc(CN4C(=O)C5C(C4=O)C5(C)C)sc23)c1NC1CCNC1 (stereo not drawn) [Example 26, 4-(2-((6,6-dimethyl-2,4-dioxo-3-azabicyclo[3.1.0]hexan-3-yl)methyl)thieno[3,2-b]pyridin-7-yl)-6-methyl-5-(pyrrolidin-3-ylamino)picolinonitrile 2,2,2-trifluoroacetate]	> 6.30	
Cc1nc(C#N)cc(-c2ccnc3cc(CN4C(=O)C5C(C4=O)C5(C)C)sc23)c1NC(=O)C1CCN1 (stereo not drawn) [Example 27, N-(6-cyano-4-(2-((6,6-dimethyl-2,4-dioxo-3-azabicyclo[3.1.0]hexan-3-yl)methyl)thieno[3,2-b]pyridin-7-yl)-2-methylpyridin-3-yl)azetidine-2-carboxamide 2,2,2-trifluoroacetate]		inhibition at 1 µM: < 20%
Cc1nc(Cl)cc(-c2ccnc3cc(CN4C(=O)C5C(C4=O)C5(C)C)sc23)c1NC(=O)C1CNC1 (stereo not drawn) [Example 29, N-(6-chloro-4-(2-((6,6-dimethyl-2,4-dioxo-3-azabicyclo[3.1.0]hexan-3-yl)methyl)thieno[3,2-b]pyridin-7-yl)-2-methylpyridin-3-yl)azetidine-3-carboxamide 2,2,2-trifluoroacetate]	> 6.30	
Cc1cc(Cl)cc(-c2ccnc3sccc23)c1O[C@H]1CCCNC1 [Example 31, (S)-4-(5-chloro-3-methyl-2-(piperidin-3-yloxy)phenyl)thieno[2,3-b]pyridine 2,2,2-trifluoroacetate]	5.00 to 6.00	
Cc1nc(C(F)(F)F)cc(-c2ccnc3cc(CN4C(=O)C5C(C4=O)C5(C)C)sc23)c1NC(=O)CN1CC(F)(F)C1 (stereo not drawn) [Example 32, 2-(3,3-difluoroazetidin-1-yl)-N-(4-(2-((6,6-dimethyl-2,4-dioxo-3-azabicyclo[3.1.0]hexan-3-yl)methyl)thieno[3,2-b]pyridin-7-yl)-2-methyl-6-(trifluoromethyl)pyridin-3-yl)acetamide 2,2,2-trifluoroacetate]		inhibition at 1 µM: < 20%

Continued, in another order:

pIC50	SMILES	further results
6.00 to 6.30	Cc1nc(C#N)cc(-c2ccnc3cc(CN4C(=O)C5C(C4=O)C5(C)C)sc23)c1C(=O)N1CC[C@@H](N)C1 (stereo partly drawn) [Example 8, 5-((R)-3-aminopyrrolidine-1-carbonyl)-4-(2-((6,6-dimethyl-2,4-dioxo-3-azabicyclo[3.1.0]hexan-3-yl)methyl)thieno[3,2-b]pyridin-7-yl)-6-methylpicolinonitrile 2,2,2-trifluoroacetate]	
5.00 to 6.00	Cc1nc(C#N)cc(-c2ccnc3cc(CN4C(=O)C5C(C4=O)C5(C)C)sc23)c1C(=O)N1CCC(F)(F)C1 (stereo not drawn) [Example 10, 5-(3,3-difluoropyrrolidine-1-carbonyl)-4-(2-((6,6-dimethyl-2,4-dioxo-3-azabicyclo[3.1.0]hexan-3-yl)methyl)thieno[3,2-b]pyridin-7-yl)-6-methylpicolinonitrile 2,2,2-trifluoroacetate]	
> 6.30	Cc1nc(C#N)cc(-c2ccnc3cc(CN4C(=O)C5C(C4=O)C5(C)C)sc23)c1C(=O)N1CC[C@H](O)C1 (stereo partly drawn) [Example 11, 4-(2-((6,6-dimethyl-2,4-dioxo-3-azabicyclo[3.1.0]hexan-3-yl)methyl)thieno[3,2-b]pyridin-7-yl)-5-((S)-3-hydroxypyrrolidine-1-carbonyl)-6-methylpicolinonitrile 2,2,2-trifluoroacetate]	
6.00 to 6.30	Cc1nc(C#N)cc(-c2ccnc3cc(CN4C(=O)C5C(C4=O)C5(C)C)sc23)c1C(=O)N1CC[C@@H](O)C1 (stereo partly drawn) [Example 12, 4-(2-((6,6-dimethyl-2,4-dioxo-3-azabicyclo[3.1.0]hexan-3-yl)methyl)thieno[3,2-b]pyridin-7-yl)-5-((R)-3-hydroxypyrrolidine-1-carbonyl)-6-methylpicolinonitrile 2,2,2-trifluoroacetate]	
> 6.30	Cc1nc(C#N)cc(-c2ccnc3cc(CN4C(=O)C5C(C4=O)C5(C)C)sc23)c1C(=O)N1CC[C@H](N)C1 (stereo partly drawn) [Example 15, 5-((S)-3-aminopyrrolidine-1-carbonyl)-4-(2-((6,6-dimethyl-2,4-dioxo-3-azabicyclo[3.1.0]hexan-3-yl)methyl)thieno[3,2-b]pyridin-7-yl)-6-methylpicolinonitrile 2,2,2-trifluoroacetate]	
6.00 to 6.30	Cc1nc(C#N)cc(-c2ccnc3cc(CN4C(=O)C5C(C4=O)C5(C)C)sc23)c1C(=O)N1CCNCC1 (stereo not drawn) [Example 17, 4-(2-((6,6-dimethyl-2,4-dioxo-3-azabicyclo[3.1.0]hexan-3-yl)methyl)thieno[3,2-b]pyridin-7-yl)-6-methyl-5-(piperazine-1-carbonyl)picolinonitrile hydrochloride]	
6.00 to 6.30	Cc1nc(C#N)cc(-c2ccnc3cc(CN4C(=O)C5C(C4=O)C5(C)C)sc23)c1C(=O)N1CC(F)(F)C1 (stereo not drawn) [Example 19, 5-(3,3-difluoroazetidine-1-carbonyl)-4-(2-((6,6-dimethyl-2,4-dioxo-3-azabicyclo[3.1.0]hexan-3-yl)methyl)thieno[3,2-b]pyridin-7-yl)-6-methylpicolinonitrile 2,2,2-trifluoroacetate]	
> 6.30	Cc1nc(C#N)cc(-c2ccnc3cc(CN4C(=O)C5C(C4=O)C5(C)C)sc23)c1NC(=O)C1CNC1 (stereo not drawn) [Example 30, N-(6-cyano-4-(2-((6,6-dimethyl-2,4-dioxo-3-azabicyclo[3.1.0]hexan-3-yl)methyl)thieno[3,2-b]pyridin-7-yl)-2-methylpyridin-3-yl)azetidine-3-carboxamide 2,2,2-trifluoroacetate]	
